Experimental data from patent US4997854A, “Anti-fibrotic agents and methods for inhibiting the activity of lysyl oxidase in-situ using adjacently positioned diamine analogue substrates” (Trustees of Boston University, priority 1989, dated 1991).
Read-outs that look alike come from different tables or passages of the source.

What was measured:
[1] = biological target: T1, lysyl oxidase (Bos taurus, UniProt P33072); assay: Lysyl oxidase peroxidase-coupled fluorescence assay of n-hexylamine oxidation; format: biochemical, bovine
T1 construct: Lysyl oxidase was purified from bovine aorta as previously described; from tissue; host or cells: bovine aorta
T1 sequence (P33072 170-418): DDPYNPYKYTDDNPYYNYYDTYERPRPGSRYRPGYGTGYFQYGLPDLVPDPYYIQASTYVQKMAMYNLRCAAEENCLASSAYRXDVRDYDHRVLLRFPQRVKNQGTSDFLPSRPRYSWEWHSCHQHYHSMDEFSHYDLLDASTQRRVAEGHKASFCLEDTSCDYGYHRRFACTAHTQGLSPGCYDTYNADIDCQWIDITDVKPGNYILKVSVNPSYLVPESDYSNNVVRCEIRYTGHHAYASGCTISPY
Protocol: Lysyl oxidase was purified from bovine aorta as previously described. [Williams, M. A. and H. M. Kagan, Anal. Biochem. 113:336 (1985)].
(§1) The purified lysyl oxidase enzyme was also assayed against alkyl monoamines and alkyl diamines using the reported peroxidase-coupled fluorescence method at 55° C. [Trackman et al., Anal. Biochem. 113:336-342 (1981)]. The reaction mixtures contained 40 ug horseradish peroxidase, 0.7 mM homovanillic acid, 1.2M urea, 0.02M potassium phosphate/borate buffer, at pH 8 (or at varying values of pH as indicated) in a total volume of 2 ml. Assay solutions were adjusted to an ionic strength of 0.04 using potassium chloride. Lysyl oxidase was then added to initiate the reaction. Fluorescence was continuously monitored at an excitation wavelength of 315 nm and an emission wavelength of 425 nm. The enzyme-dependent production of hydrogen peroxide was quantified by reference to standard plots relating nanomoles of hydrogen peroxide added to fluorescence units. […] Kinetic constants were derived from initial rate assay data by using the Fortan program of Cleland [Meth. Enzymol. 63:103-138 (1979)] which determines Vmax and Km values from data of Michaelis-Menten experiments using a least squares fitting procedure applied to the Michaelis-Menten equation.
The pH-dependency of the Vmax for the oxidation of a series of diamines and monoamine substrates by lysyl oxidase was first explored.
(§2) Accordingly cis and trans isomers of DACH were used to probe this possibility.

[2] = biological target: T1, lysyl oxidase; assay: Irreversible, time-dependent inactivation of lysyl oxidase (preincubation, then dialysis or dilution into the assay); format: biochemical, bovine; details: for rate of inactivation under anaerobic conditions: anaerobic / nitrogen-purged
Protocol: as §2
In addition, the time-dependency for the expression of irreversible inhibition was assessed by initially preincubating lysyl oxidase at 37° in the presence or absence of various concentrations of cis-DACH; and then diluting aliquots of these individual reaction mixtures into peroxidase-coupled assays for n-hexylamine oxidation - thereby reducing the cis-DACH concentrations to non-inhibitory levels within the lysyl oxidase assays. […] The possibility that the inactivation derived from the removal of the metal ion cofactor of the enzyme by the cyclic diamine was then assessed by atomic absorption spectroscopy.

[3] = biological target: T1, lysyl oxidase; assay: Release of 3H+ from [1,2-3H]DACH by lysyl oxidase; format: biochemical, bovine; details: for Ratio ^3 H^+/Oxidant / ^3 H^+ Released: 1 mM [^3 H]DACH; for ^3 H^+ Released: pH 8, 37°C, maximum level
Protocol: ^a/ The indicated amounts of PQQ or functional active sites of lysyl
oxidase were incubated with [^3 H]DACH (1 mM; 0.13 mCi/mmole) in 50 m
sodium borate, pH 8, at 37°C. and aliquots of the incubation
mixture were removed at intervals, distilled in vacuo and the isolated
[^3 H]H2 O was quantified by liquid scintillation spectrometry.
The values shown are the maximum levels accumulated in these assays and
are corrected for minor background
effects in the absence of oxidant.
Toward similar ends [1,2-^3 H]DACH was synthesized and used to determine whether the reaction of this diamine with limiting quantities of free PQQ or of lysyl oxidase would result in the release of ^3 H^+ --a result to be expected if carbon 1 and/or carbon 2 positions of cis-DACH were oxidized in these reaction mixtures. As provided by Table E2, approximately 2 moles of ^3 H^+ were released per mole of each limiting reactant; with a maximum of 2.30 moles of ^3 H^+ released per mole of PQQ and a maximum of 1.88 moles of ^3 H^+ released per mole of functional active site in lysyl oxidase. While the synthetic, tritiated product used in these studies consisted of a mixture of the cis and trans isomers, the concentration of [^3 H]DACH incubated with the lysyl oxidase enzyme was sufficiently low to restrict the reaction primarily to the cis isomer--based upon the previous assessment of the relative potency of these compounds as inhibitors of lysyl oxidase or as perturbants of the spectrum of PQQ.

[4] = biological target: T1, lysyl oxidase; assay: Release of H2O2 on oxidation of cis-DACH by lysyl oxidase; format: biochemical, bovine; details: for Ratio H2O2/Oxidant / H2O2 Released: 1 mM cis-DACH; for H2O2 Released: maximal release
Protocol: as §1
In view of the apparent inhibiting effect of anaerobic conditions on the induction by cis-DACH of changes in the spectra of PQQ and lysyl oxidase, the possibility was evaluated that oxidation of the diamine substrate analogue may be involved in the development of irreversible inhibition of lysyl oxidase. […] This argues against significant catalytic turnover with the cyclic diamine. Nevertheless, as illustrated by FIG. 7, the development of irreversible inhibition was strongly dependent upon the presence of oxygen since the rate of inactivation was negligible under anaerobic conditions.
Toward that end, evidence was sought for the release of H2 O2 upon the reaction of cis-DACH with limiting amounts of PQQ or of relatively large quantities (although limiting relative to cis-DACH) of pure lysyl oxidase. As given by Table E1, hydrogen peroxide formation was seen under these conditions with the maximum levels of H2 O2 formed essentially equal to the amount of the limiting reactant in both cases, i.e., free PQQ or lysyl oxidase, respectively.
^a/ Hydrogen peroxide as assayed in the peroxidasecoupled fluorescenc
assay using 1 mM cisDACH as the sole source of amine substrate and
containing lysyl oxidase or PQQ at the indicated amounts. Incubations wer
continued until the release of H2 O2 was maximal in each case.
The quantity of lysyl oxidase used is expressed in the Table in terms of
functional active site content. The concentration of PQQ was determined
using 19,122 as the molar extinction coefficent.

[5] = biological target: T1, lysyl oxidase; assay: Perturbation of the absorption spectrum of lysyl oxidase; design: species or system bovine
Protocol: Absorption spectra were recorded in 1 cm cuvettes with a Hewlett Packard Diode Array spectrophotometer, with temperatures controlled by circulating water through the cuvette holder. Mixtures were made anaerobic by purging buffers and stock solutions in rubber-capped tubes with high purity nitrogen for 15 min, and then injecting aliquots of the solutions into a 1 cm semi-micro cuvette fitted with a rubber septum and flushed with nitrogen before addition of reagents. Once in the capped cuvette, each solution was further exposed to a stream of nitrogen passed over the surface of the solution and out of the capped cuvette through 21 guage needles for 5 min. just prior to spectral recording. Each perturbation described was reproducible in three or more trials.
Increased absorption occurs in accordance with an increase in optical density occurring in the region of 250 nm; a broad peak also develops with a maximum absorbance at 350-355 nm upon incubation of 47 uM cis-DACH with 4.25 uM of functional active sites in lysyl oxidase as shown in FIG. 6B. The absorption peak at 350-355 nm correlates quite well with a peak generated at the same position in the spectrum of PQQ by its interaction with cis-DACH.

[6] = biological target: T1, lysyl oxidase; assay: Protein-bound copper of lysyl oxidase by atomic absorption spectroscopy; design: species or system bovine; details: 1 mM, then dialyzed against metal-free buffer
Protocol: In addition, the time-dependency for the expression of irreversible inhibition was assessed by initially preincubating lysyl oxidase at 37° in the presence or absence of various concentrations of cis-DACH; and then diluting aliquots of these individual reaction mixtures into peroxidase-coupled assays for n-hexylamine oxidation - thereby reducing the cis-DACH concentrations to non-inhibitory levels within the lysyl oxidase assays. […] This is illustrated by FIG. 4. […] The possibility that the inactivation derived from the removal of the metal ion cofactor of the enzyme by the cyclic diamine was then assessed by atomic absorption spectroscopy. This method of analysis yielded the same values for protein-bound copper in aliquots of purified lysyl oxidase which had been incubated in either the presence or absence of 1 mM cis-DACH and then dialyzed extensively against metal-free buffer.

[7] = n-hexylamine substrate, competitive, read-out: KI, competitive inhibition of lysyl oxidase activity against n-hexylamine
[8] = lysyl oxidase as oxidant, mean of 3 amounts

## N[C@@H]1CCCC[C@H]1N (relative stereo) [trans-DACH, 1,2-Diaminocyclohexane, reference compound]
[1]; n-hexylamine oxidation, extrapolated, read-out: (extrapolated) I50 in assays of n-hexylamine oxidation
  IC50: > 10000 µM
[1]; n-hexylamine oxidation, relative to cis-DACH
  fold less inhibitory than cis-DACH: at least 10,000 fold

## NCCN [EDA, Ethylenediamine]
[2]
  rate of inactivation under anaerobic conditions: markedly reduced
[1]; [7]
  Ki: 2 µM

## [3H]C1(N)CCCCC1([3H])N (centres unmarked) [[1,2-^3 H]DACH, [1,2-^3 H]-1,2-diaminocyclohexane]
[3]; 0.50 nanomoles lysyl oxidase active sites
  Ratio ^3 H^+/Oxidant: 1.96
[3]; 0.50 nanomoles lysyl oxidase functional active sites
  ^3 H^+ Released: 0.98 Nanomoles
[3]; 1.24 nanomoles lysyl oxidase active sites
  Ratio ^3 H^+/Oxidant: 1.80
[3]; 1.24 nanomoles lysyl oxidase functional active sites
  ^3 H^+ Released: 2.23 Nanomoles
[3]; 3.72 nanomoles lysyl oxidase active sites
  Ratio ^3 H^+/Oxidant: 1.87
[3]; 3.72 nanomoles lysyl oxidase functional active sites
  ^3 H^+ Released: 6.95 Nanomoles
[3]; limiting lysyl oxidase
  ^3 H^+ released per mole of functional active site in lysyl oxidase: 1.88 moles of ^3 H^+ released per mole of functional active site
[3]; [8]
  Ratio ^3 H^+/Oxidant, mean: 1.88 ± 0.07

## N[C@@H]1CCCC[C@@H]1N [cis-DACH, 1,2-Diaminocyclohexane]
[2]
  rate of inactivation under anaerobic conditions: negligible
[2]; enzyme preincubated with 0.05M cis-DACH at 37° for 15 min, then dialyzed
  reversibility of inhibition: irreversible
[2]; preincubation at 37°, secondary reciprocal plot, read-out: limiting apparent first order rate constant for inactivation, Kinact (converted)
  kinact: 0.3 s⁻¹
[4]; 0.71 nanomoles lysyl oxidase active sites
  Ratio H2O2/Oxidant: 1.40
[4]; 0.71 nanomoles lysyl oxidase functional active sites
  H2O2 Released: 1.0 nmol
[4]; 1.78 nanomoles lysyl oxidase active sites
  Ratio H2O2/Oxidant: 0.96
[4]; 1.78 nanomoles lysyl oxidase functional active sites
  H2O2 Released: 1.70 nmol
[4]; 2-4 ug lysyl oxidase, limit of sensitivity ca. 1 nanomole of H2O2
  formation of H2O2 with catalytic quantities of lysyl oxidase: not detectable
[4]; 2.20 nanomoles lysyl oxidase active sites
  Ratio H2O2/Oxidant: 0.69
[4]; 2.20 nanomoles lysyl oxidase functional active sites
  H2O2 Released: 1.52 nmol
[4]; [8]
  Ratio H2O2/Oxidant, mean: 1.02 ± 0.29
[5]; aerobic, 47 uM cis-DACH with 4.25 uM functional active sites
  perturbation of the lysyl oxidase spectrum: perturbed
[5]; anaerobic
  perturbation of the lysyl oxidase spectrum under anaerobic conditions: not altered significantly
[6]
  removal of copper from the active site: did not remove copper
[1]; as restated in the summary, read-out: KI
  Ki: 0.38 µM
[1]; n-hexylamine oxidation, read-out: I50 in assays of n-hexylamine oxidation
  IC50: 1.5 µM
[1]; [7]
  Ki: 0.38 µM
